These results are taken from patent US20240368139A1, “NOVEL MODULATORS OF EHMT1 AND EHMT2 AND THERAPEUTIC USE THEREOF” (Tango Therapeutics, Inc., priority 2021, published 2024).

Broadly, the IC50 is the midpoint of a concentration-inhibition curve.

One assay concerns H3K9me2 in HCT116 cells. Kind of assay: HCT116 H3K9me2 in-cell western assay. The following applies: Homo sapiens, HCT-116, 72 h, HCT116 cells, 72 hours incubation; read-out: H3K9me2 ICW IC50. It is filed as cell-based. The method in brief: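 HCT116 cells (2,000/well) were treated for 72 h at 37° C, 5% CO2, with ten two-fold dilutions from 10 μM in duplicate. After PFA fixation, cells were stained overnight at 4° C with anti-H3K9me2, then with an 800 CW secondary plus DRAQ5.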

A further assay concerns the target T1, human EHMT2 913-1193 (Homo sapiens, UniProt Q96KQ7).
T1 sequence (Q96KQ7 913-1193): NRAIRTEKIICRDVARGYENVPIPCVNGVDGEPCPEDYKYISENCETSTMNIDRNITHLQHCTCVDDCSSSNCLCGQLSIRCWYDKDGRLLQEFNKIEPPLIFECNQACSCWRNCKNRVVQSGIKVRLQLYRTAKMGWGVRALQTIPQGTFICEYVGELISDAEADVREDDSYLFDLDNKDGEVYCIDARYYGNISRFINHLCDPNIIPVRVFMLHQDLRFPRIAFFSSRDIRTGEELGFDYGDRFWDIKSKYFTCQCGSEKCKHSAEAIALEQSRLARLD
Kind of assay: EHMT2 enzyme assay on histone peptide substrate (3H-SAM SPA). The following applies: EHMT2 IC50, recombinant human EHMT2 913-1193, histone peptide substrate.

Another assay concerns the target T2, human EHMT1 982-1266 (Homo sapiens, UniProt Q9H9B1).
T2 sequence (Q9H9B1 982-1266): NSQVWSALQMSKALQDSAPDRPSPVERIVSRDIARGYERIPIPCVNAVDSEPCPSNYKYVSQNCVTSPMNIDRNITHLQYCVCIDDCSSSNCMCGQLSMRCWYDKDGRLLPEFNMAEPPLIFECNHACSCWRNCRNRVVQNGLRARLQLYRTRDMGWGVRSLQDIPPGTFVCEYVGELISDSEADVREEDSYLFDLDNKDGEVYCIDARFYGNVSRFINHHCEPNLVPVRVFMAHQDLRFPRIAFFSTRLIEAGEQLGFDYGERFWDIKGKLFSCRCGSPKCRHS
Kind of assay: EHMT1 enzyme assay on histone peptide substrate (3H-SAM SPA). As to conditions: EHMT1 IC50, recombinant human EHMT1 982-1266, histone peptide substrate.

A further assay concerns the target hERG potassium channels (Homo sapiens, UniProt Q12809). In words: In vitro hERG assay (SyncroPatch whole-cell recording). As to conditions: room temperature. Background: Block of hERG is tested as a sign of cardiac risk.

hERG potassium channels, sequence (Q12809 whole entry): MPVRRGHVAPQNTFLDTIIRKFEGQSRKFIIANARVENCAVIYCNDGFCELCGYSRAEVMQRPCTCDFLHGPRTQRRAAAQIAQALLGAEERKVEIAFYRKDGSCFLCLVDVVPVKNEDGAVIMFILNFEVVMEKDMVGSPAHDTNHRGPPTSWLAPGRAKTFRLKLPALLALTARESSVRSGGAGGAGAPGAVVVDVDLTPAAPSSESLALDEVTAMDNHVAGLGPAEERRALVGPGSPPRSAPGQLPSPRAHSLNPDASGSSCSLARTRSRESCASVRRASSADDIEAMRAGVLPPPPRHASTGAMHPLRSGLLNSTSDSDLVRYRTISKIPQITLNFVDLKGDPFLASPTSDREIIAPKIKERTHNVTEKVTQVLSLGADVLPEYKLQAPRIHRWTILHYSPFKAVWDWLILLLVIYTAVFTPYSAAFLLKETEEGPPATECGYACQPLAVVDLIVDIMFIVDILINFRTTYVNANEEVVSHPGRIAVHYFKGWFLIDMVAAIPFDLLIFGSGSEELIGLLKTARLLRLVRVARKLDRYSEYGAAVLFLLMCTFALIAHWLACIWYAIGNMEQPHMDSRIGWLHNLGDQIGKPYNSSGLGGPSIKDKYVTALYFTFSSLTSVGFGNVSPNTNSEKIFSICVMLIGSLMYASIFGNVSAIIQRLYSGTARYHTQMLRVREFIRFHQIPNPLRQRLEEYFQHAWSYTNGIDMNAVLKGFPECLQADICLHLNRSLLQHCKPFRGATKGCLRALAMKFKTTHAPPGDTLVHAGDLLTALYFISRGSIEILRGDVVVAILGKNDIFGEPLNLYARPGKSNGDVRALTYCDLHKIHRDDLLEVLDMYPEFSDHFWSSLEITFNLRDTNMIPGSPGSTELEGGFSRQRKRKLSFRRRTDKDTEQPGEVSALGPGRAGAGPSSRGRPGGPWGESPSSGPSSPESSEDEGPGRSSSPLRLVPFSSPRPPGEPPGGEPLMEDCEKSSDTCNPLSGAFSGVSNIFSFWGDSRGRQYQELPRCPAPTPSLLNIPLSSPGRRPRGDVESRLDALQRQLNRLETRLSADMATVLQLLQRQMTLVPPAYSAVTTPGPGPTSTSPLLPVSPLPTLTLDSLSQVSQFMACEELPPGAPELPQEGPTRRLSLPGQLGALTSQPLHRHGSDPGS
Description for hERG potassium channels: CHO cells stably expressing hERG potassium channels from Sophion Biosciences were used for this test. The cells were cultured in a humidified and air-controlled (5% CO2) incubator at 37° C.
The CHO hERG Culture Medium consisted of 500 mL Ham's F12 (Invitrogen), 50 mL FBS (HyClone), 1 mL G418/Geneticin (Invitrogen, and 1 mL Hygromycin B (Invitrogen)
The CHO cells which were at least two days after plating and more than 75% confluent would be used for experiments. Before testing, cells were harvested using TrypLE and resuspended in the physiological solution at the room temperature.
For the electrophysiological recordings the following solutions were used (Table 5). The physiological solution and external solution were prepared at least one month. The intracellular solution was prepared in batches aliquoted, and stored at 4° C. until used.
Test compounds were dissolved in 100% DMSO to obtain stock solutions for different test concentrations. Then the stock solutions were further diluted into external solution to achieve final concentrations for testing. Visual check for precipitation was conducted before testing. Final DMSO concentration in external solution was not more than 0.30% for the test compounds.
Voltage command protocol: From this holding potential of −80 mV, the voltage was first stepped to −50 mV for 80 ms for leak subtraction, and then stepped to +20 mV for 4800 ms to open hERG channels. After that, the voltage was stepped back down to −50 mV for 5000 ms, causing a “rebound” or tail current, which was measured and collected for data analysis. Finally, the voltage was stepped back to the holding potential (−80 mV, 1000 ms). This voltage command protocol was repeated every 20000 msec. This command protocol was performed continuously during the test (vehicle control and test compound).
hERG SyncroPatch assay was conducted at room temperature. The Setup, Prime Chip, Catch and Seal Cells, Amplifier Settings, Voltage and Application Protocols were established with Biomek Software (Nanion). One addition of 40 μL of the vehicle was applied, followed by 300s for a baseline period. Then the doses of the compounds were added with 40 μL. The exposure of test compound at each concentration was no less than 300s. […] Five concentrations (0.30 μM, 1.00 μM, 3.00 μM, 10.00 μM and 30.00 μM) were tested for each compound. Minimum 2 replicates per concentration were obtained.
Within each well recording, percent of control values were calculated for each test compound concentration current response based on peak current in presence of reference control (current response/peak current)×100%. The Dose-Response curves were fit to the standard Hill equation as shown below:
Where X is the logarithm of concentration, Ipost cpd/Ipre cpa is the normalized peak current amplitude, Top is 1 and Bottom is equal to 0.
Curve-fitting and IC50 calculations were performed by GraphPad Prism 5.0.

For `CNc1cc(C)nc(Nc2cc3c(c(C4=C[C@H]5CNC[C@H]5C4)c2)OCCO3)n1` (racemic) [Compound 134, N2-[5-(1,2,3,3a,6,6a-hexahydrocyclopenta[c]pyrrol-5-yl)-2,3-dihydro-1,4-benzodioxin-7-yl]-N4,6-dimethyl-pyrimidine-2,4-diamine], the IC50 is 100 to 500 nM in the assay with H3K9me2 in HCT116 cells; 100 to 500 nM on human EHMT2 913-1193; 100 to 500 nM at human EHMT1 982-1266; above 10000 nM at hERG potassium channels (hERG IC50, SyncroPatch).

`CNc1cc(C)nc(Nc2cc3c(c(C4=CCNC(C)CC4)c2Cl)OCCC3)n1` (single isomer, unassigned) [Compound 357]: the half-maximal inhibitory concentration (IC50) in the assay on H3K9me2 in HCT116 cells was below 100 nM; at human EHMT2 913-1193, below 100 nM; on human EHMT1 982-1266 it was below 100 nM; on hERG potassium channels (hERG IC50, SyncroPatch) it was 5000 to 10000 nM.

Take `CNc1cc(C)nc(Nc2cc3c(c(C4=CCNCCC4)c2)OCCO3)n1` [Compound 130, N4,6-dimethyl-N2-[5-(2,3,4,7-tetrahydro-1H-azepin-5-yl)-2,3-dihydro-1,4-benzodioxin-7-yl]pyrimidine-2,4-diamine]: the 50% inhibitory concentration (IC50) in the assay with H3K9me2 in HCT116 cells is below 100 nM; at human EHMT2 913-1193, below 100 nM; on human EHMT1 982-1266, below 100 nM; against hERG potassium channels (hERG IC50, SyncroPatch), 2000 to 5000 nM.

On to `CNc1cc(C)nc(Nc2cc3c(c(C4=CCNCC(F)C4)c2F)OCC3)n1` (single isomer, unassigned) [Compound 167], for which the IC50 is below 100 nM in the assay with H3K9me2 in HCT116 cells; below 100 nM at human EHMT2 913-1193; below 100 nM on human EHMT1 982-1266; 5000 to 10000 nM against hERG potassium channels (hERG IC50, SyncroPatch).

As for `Cc1cc(NCC(F)(F)F)nc(Nc2cc3c(c(C4=CCNCCC4)c2)OCC3)n1` [Compound 322], the concentration for half-maximal inhibition (IC50) in the assay with H3K9me2 in HCT116 cells is 100 to 500 nM; at human EHMT2 913-1193, 100 to 500 nM; at human EHMT1 982-1266, below 100 nM; on hERG potassium channels (hERG IC50, SyncroPatch), 2000 to 5000 nM.

As to `CNc1ccnc(Nc2cc3c(c(C4=CCNCCC4)c2)OCO3)n1` [Compound 336], the IC50 is below 100 nM in the assay with H3K9me2 in HCT116 cells; below 100 nM on human EHMT2 913-1193; below 100 nM at human EHMT1 982-1266; 5000 to 10000 nM on hERG potassium channels (hERG IC50, SyncroPatch).

`CNc1cc(C)nc(Nc2cc3c(c(C4=CCN(C)CCC4)c2F)OCCC3)n1` [Compound 190]: the IC50 was below 100 nM in the assay on H3K9me2 in HCT116 cells; below 100 nM at human EHMT2 913-1193; below 100 nM on human EHMT1 982-1266; 5000 to 10000 nM against hERG potassium channels (hERG IC50, SyncroPatch).

With `CNc1cc(C)nc(Nc2cc3c(c(C4=CCNCCC4)c2)OCC3)n1` [Compound 110, N4,6-dimethyl-N2-[7-(2,3,4,7-tetrahydro-1H-azepin-5-yl)-2,3-dihydrobenzofuran-5-yl]pyrimidine-2,4-diamine], the IC50 is below 100 nM with H3K9me2 in HCT116 cells; below 100 nM on human EHMT2 913-1193; below 100 nM at human EHMT1 982-1266; above 10000 nM against hERG potassium channels (hERG IC50, CHO cells stably expressing hERG); above 10000 nM on hERG potassium channels (hERG IC50, SyncroPatch).

On to `CNc1cc(C)nc(Nc2cc3c(c(C4=CCNCCC4)c2F)OCC3)c1` [Compound 328], for which the IC50 in the assay on H3K9me2 in HCT116 cells was below 100 nM; on human EHMT2 913-1193 it was below 100 nM; at human EHMT1 982-1266, below 100 nM; against hERG potassium channels (hERG IC50, SyncroPatch), above 10000 nM.
